“Also recorded” adds a separate entry of the source.
Legend:
[1] = system: MMR defective cell lines; conditions: mammalian cells; Chen et al. 2000; cited from earlier work
[2] = system: Arabidopsis thaliana; test: New phenotypes in offspring of chemically exposed Arabidopsis plants; type: in vivo; conditions: for offspring with small light green appearance (altered phenotype): offspring grown in standard soil conditions for 17 days, FIG. 6; for phenotypically distinct plants among offspring at day 10: offspring of plants grown from seeds on 2 mM DMA or 250 μM EMS for 10 days
Method: Next, 50 seeds were plated in two 150 mm dishes containing 2 mM DMA, 250 μM EMS or no drug. Seeds were grown for 10 days and then 10 plants from each plate were transferred to soil. All plants appeared to be similar in color and height. Plants were grown at room temperature with daily cycles of 18 hr light and 6 hr dark. After 45 days seeds are harvested from siliques and stored in a desiccator at 4° C. for 72 hours. Seeds are then sterilized and 100 seeds from each plant is sown directly into water-saturated soil and grown at room temperature with daily cycles of 18 hr light and 6 hr dark. […] These 7 altered plants were light green in color and appeared to grow slower. […] DMA-exposed plants produced offspring that were yellow in appearance in contrast to dark green, which is always found in wild-type plants. In addition, the yellow plants were also shorter. After 30 days, most wild-type plants produced flowers and siliques, while the 7 mutants just began flowering. After 45 days, control plants were harvested while mutant plants were harvested 10 to 15 days later.

[3] = system: Pichia yeast containing GUS-OF reporter; test: Pichia yeast pGUS-OF MMR-sensitive reporter assay (X-glu plates); type: cell-based; conditions: GUS-OF Pichia incubated with 300 μM chemical for 48 hours
Method: Briefly, the GUS-OF and GUS-IF gene, which contains a polyA repeat at the N-terminus of the protein was subcloned from the pCR-IF-GUS and pCR-OF-GUS plasmids into the EcoRI site of the pGP vector, which is a consitutively expressed yeast vector containing a zeocin resistance gene as selectable marker. pGP-GUS-IF and pGP-GUS-OF vectors were electroporated into competent Pichia cells using standard methods known by those skilled in the art. Cells were plated on YPD agar (10 g/L yeast extract; 20 g/L peptone; 2% glucose; 1.5% bactoagar) plates containing 100 μg/ml zeocin. Recombinant yeast are then analyzed for GUS expression/function by replica plating on YPD agar plates containing 100 μg/ml zeocin plus 1 mg/ml X-glu (5-bromo-4-chloro-3-indoyl-beta-D-glucuronide sodium salt) and grown at 30° C. for 16 hours. […] None of the yeast containing the GUS-OF turned blue in the presence of the X-glu substrate under normal growth conditions.
After incubation, yeast were plated on YPD-ZEO-X-GLU plates and grown at 30° C. for 16 hours.

[4] = system: mismatch repair (MMR) in H36 pCAR-OF cells; type: cell-based, murine; conditions: for generation of β-galactosidase positive cells / MI and shifting of the polynucleotide tract in the pCAR-OF reporter: H36 pCAR-OF cells
[5] = system: Arabidopsis thaliana; test: Toxicity curve on Arabidopsis seeds on MS phytagar plates (root and shoot formation); type: in vivo; conditions: for Dead: non-germinated seeds
Method: Briefly, AT seeds were sterilized with straight commercial bleach and 100 seeds were plated in 100 mm Murashige and Skoog (MS) phytagar (Life Technology) plates with increasing amounts of DMA (ranging from 100 μm to 50 mM). A similar amount of seeds were plated on MS phytagar only or in MS phytagar with increasing amounts of EMS (1001M to 50 mM), a mutagen commonly used to mutate AT seeds (McCallum, C. M. et al. (2000) Nat. Biotechnol. 18:455-457). Plates were grown in a temperature-controlled, fluorescent-lighted humidifier (Percival Growth Chamber) for 10 days. After 10 days, seeds were counted to determine toxicity levels for each compound. […] Plantlets that were identical to untreated seeds were scored healthy. Seeds with stunted root or shoot formation were scored intermediate (inter). Non-germinated seeds were scored dead.

[6] = system: human HEK293 cells; test: Toxicity of DMA to 293 cells in culture; type: cell-based; conditions: 14 to 17 days
Method: (§1) Briefly, 10^5 cells were grown in control medium or 250 μM DMA, a concentration that is found to be non-toxic, for 14 to 17 days. Cells are then harvested and genomic DNA isolated using the salting out method (Nicolaides, N. C. et al. (1991) Mol. Cell. Biol. 11:6166-6176.).

[7] = at high concentrations; Myers et al. 1988; cited from earlier work
[8] = system: human HEK293 cells (BAT26 microsatellite marker); test: BAT26 microsatellite instability of endogenous loci in 293 cells (PCR, cloning, sequencing); type: cell-based
Method: as §1
Various amounts of test DNAs from HCT116 (a human colon epithelial cell line) and 293 were first used to determine the sensitivity of our microsatellite test. The BAT26 alleles are known to be heterogeneous between these two cell lines and the products migrate at different molecular weights (Nicolaides personal observation). DNAs were diluted by limiting dilution to determine the level of sensitivity of the assay. DNAs were PCR amplified using the BAT26F: 5′-[…]-3′ (SEQ ID NO:43) and the BAT26R: 5′-[…]-3′ (SEQ ID NO:44) primers in buffers as described (Nicolaides, N. C. et al. (1995) Genomics 30:195-206). Briefly 1 pg to 100 ngs of DNA were amplified using the following conditions: 94° C. for 30 sec, 58° C. for 30 sec, 72° C. for 30 sec for 30 cycles. […]
To measure for microsatellite stability in 293 cells grown with or without DMA, 0.1 ngs of DNA from DMA-treated or control 293 cells were amplified using the reaction conditions above. […] Fifty bacterial colonies were analyzed for BAT26 structure by directly adding an aliquot of live bacteria to the PCR mix. […]

[9] = system: MMR activity (ATPase-dependent); conditions: in vitro assays; Galio 1999, Allen 1997, Bjornson 2000; cited from earlier work
[10] = Arabidopsis thaliana, in vivo, 10 days, 2.5 mM
[11] = Arabidopsis thaliana, in vivo, 10 days, 5 mM
[12] = Arabidopsis thaliana, in vivo, 10 days, 10 mM
[13] = Arabidopsis thaliana, in vivo, 10 days, 12.5 mM
[14] = Arabidopsis thaliana, in vivo, 10 days, 25 mM
[15] = Arabidopsis thaliana, in vivo, 10 days, 50 mM

SMILES: COc1ccc2nc3cc(Cl)ccc3c(NCCCNCCCl)c2c1 [ICR191]
- mutation induction in MMR defective cell lines [1]: produce enhanced mutation rates in already MMR defective cell lines

SMILES: CCOS(C)(=O)=O [EMS, ethyl methanesulfonate]
- offspring with small light green appearance (altered phenotype) [2]: No plants with altered phenotypes were observed
- phenotypically distinct plants among offspring at day 10 [2]: no phenotypic difference was observed
- blue subclones (functional GUS) on YPD-ZEO-X-GLU plates [3]: none are seen
- generation of β-galactosidase positive cells / MI and shifting of the polynucleotide tract in the pCAR-OF reporter [4]: did not result in MI and/or the shifting of the polynulceotide tract in the pCAR-OF reporter
- concentration at which toxicity occurs ([5]; Arabidopsis thaliana, in vivo, 10 days): 250 µM
- Inter ([5]; Arabidopsis thaliana, in vivo, 10 days, 0.1 mM): 0 per 100 cells
- Healthy [5, 10]: 0 per 100 cells
- Inter [5, 10]: 0 per 100 cells
- Healthy [5, 11]: 0 per 100 cells
- Inter [5, 11]: 0 per 100 cells
- Healthy [5, 12]: 0 per 100 cells
- Inter [5, 12]: 0 per 100 cells
- Healthy [5, 13]: 0 per 100 cells
- Inter [5, 13]: 0 per 100 cells
- Healthy [5, 14]: 0 per 100 cells
- Inter [5, 14]: 0 per 100 cells
- Healthy [5, 15]: 0 per 100 cells
- Inter [5, 15]: 0 per 100 cells

SMILES: Cc1c2ccccc2c(C)c2ccccc12 [DMA, 9,10-dimethylanthracene]
- offspring with small light green appearance (altered phenotype) [2]: Six
- phenotypically distinct plants among offspring at day 10 [2]: 7 out of 118
- blue subclones (functional GUS) on YPD-ZEO-X-GLU plates [3]: a subset of yeast expressing GUS-OF contain blue subclones
- concentration found to be non-toxic [6]: 250 µM
- mutagenic activity [7]: acts as a potent weak mutagen
- BAT26 polyA repeat alleles by sequence analysis of clones ([8]; 293 cells treated with DMA, control clone homozygous for 26 nt polyA repeat): multiple alleles ranging from the wild-type with 26 polyA repeat to shorter alleles (24 polyA repeat) and larger alleles (28 polyA repeat)
- altered BAT26 alleles (microsatellite instability) ([8]; 293 cells, 250 μM DMA, 14-17 days, PCR and gel electrophoresis): showed the presence of an altered allele; also recorded: presence of a new allele in cells treated with DMA
- generation of β-galactosidase positive cells / MI and shifting of the polynucleotide tract in the pCAR-OF reporter [4]: produces b-gal positive H36 pCAR-OF cells
- cells positive for b-gal ([4]; H36 pCAR-OF cells grown in the presence of DMA, FIG. 3): Approximately 3%
- concentration at which toxicity occurs ([5]; Arabidopsis seeds, continuous culture, from Table 2): 10000 µM
- Dead ([5]; concentration 0.1, 10 days): 0 per 100 seeds
- Inter ([5]; concentration 0.1, 10 days, stunted root or shoot formation scored intermediate): 0 per 100 seeds
- Dead ([5]; concentration 0.5, 10 days): 0 per 100 seeds
- Inter ([5]; concentration 0.5, 10 days, stunted root or shoot formation): 0 per 100 seeds
- Dead ([5]; concentration 1.0, 10 days): 0 per 100 seeds
- Inter ([5]; concentration 1.0, 10 days, stunted root or shoot formation): 0 per 100 seeds
- Dead ([5]; concentration 2.5, 10 days): 0 per 100 seeds
- Dead ([5]; concentration 5.0, 10 days): 0 per 100 seeds
- Dead ([5]; concentration 10, 10 days): 0 per 100 seeds
- Healthy ([5]; concentration 12.5, 10 days on MS phytagar): 0 per 100 seeds
- Dead ([5]; concentration 12.5, 10 days): 0 per 100 seeds
- Healthy ([5]; concentration 25, 10 days on MS phytagar): 0 per 100 seeds
- Dead ([5]; concentration 25, 10 days): 0 per 100 seeds
- Healthy ([5]; concentration 50, 10 days on MS phytagar): 0 per 100 seeds
- Inter ([5]; concentration 50, 10 days, stunted root or shoot formation): 0 per 100 seeds

SMILES: Nc1ncnc2c1ncn2[C@@H]1O[C@H](COP(=O)(O)OP(=O)(O)NP(=O)(O)O)[C@@H](O)[C@H]1O [AMP-PNP]
- effect on MMR activity in vitro [9]: block the MMR activity

SMILES: Nc1ncnc2c1ncn2[C@@H]1O[C@H](COP(=O)(O)OP(=O)(O)OP(O)(O)=S)[C@@H](O)[C@H]1O [ATP[gamma]S]
- effect on MMR activity in vitro [9]: block the MMR activity

Source: patent US8105836B2, “Chemical inhibitors of mismatch repair” (priority 2001, dated 2012)
